Source: patent publication US20240239772A1, “PROTEASE INHIBITORS AND METHODS OF USE” (The Cleveland Clinic Foundation, priority 2021, published 2024)

System: SARS-CoV-2
Assay: microbe, parasite or virus in culture
Type: cell-based
Conditions: Severe acute respiratory syndrome coronavirus 2, Vero C1008, read-out: Plaque Reduction Assay EC50

Compound | EC50 [nM]
COc1cc(-c2cn[nH]c2)ccc1N(Cc1cccc(Cl)c1)C(=O)Cn1nnc2ccccc21 [Compound 38, 2-(Benzotriazol-1-yl)-N-[(3-chlorophenyl)methyl]-N-[2-methoxy-4-(1H-pyrazol-4-yl)phenyl]acetamide] | 2010 ± 490
O=C(Cn1nnc2ccccc21)N(Cc1cccc(Cl)c1)c1ccc(-c2cn[nH]c2)cc1 [Compound 36, N-(4-(1H-Pyrazol-4-yl)phenyl)-2-(1H-benzo[d][1,2,3]triazol-1-yl)-N-(3-chlorobenzyl)acetamide] | 3310 ± 100
O=C(Cn1nnc2ccccc21)N(Cc1ccsc1)c1ccc(-c2cccnc2)cc1 [Compound 17b, 2-(1H-benzo[d][1,2,3]triazol-1-yl)-N-(4-(pyridin-3-yl)phenyl)-N-(thiophen-3-ylmethyl)acetamide, reference compound] | 14600 ± 1220
CCC(CC)COC(=O)[C@H](C)N[P@](=O)(OC[C@H]1O[C@@](C#N)(c2ccc3c(N)ncnn23)[C@H](O)[C@@H]1O)Oc1ccccc1 [Remdesivir, reference compound] | 430 ± 60

System: SARS-CoV-2
Assay: microbe, parasite or virus in culture
Type: cell-based
Conditions: Severe acute respiratory syndrome coronavirus 2, Vero C1008, 68 h, read-out: CPE Inhibition Assay EC50

Compound | EC50 [nM]
O=C(Cn1nnc2ccccc21)N(Cc1cccc(Cl)c1)c1ccc(-c2cn[nH]c2)cc1 [Compound 36, N-(4-(1H-Pyrazol-4-yl)phenyl)-2-(1H-benzo[d][1,2,3]triazol-1-yl)-N-(3-chlorobenzyl)acetamide] | 1980 ± 240
O=C(Cn1nnc2ccccc21)N(Cc1ccsc1)c1ccc(-c2cccnc2)cc1 [Compound 17b, 2-(1H-benzo[d][1,2,3]triazol-1-yl)-N-(4-(pyridin-3-yl)phenyl)-N-(thiophen-3-ylmethyl)acetamide, reference compound] | 12100 ± 310
CCC(CC)COC(=O)[C@H](C)N[P@](=O)(OC[C@H]1O[C@@](C#N)(c2ccc3c(N)ncnn23)[C@H](O)[C@@H]1O)Oc1ccccc1 [Remdesivir, reference compound] | 340 ± 10

Same assay, conditions: Severe acute respiratory syndrome coronavirus 2, Vero C1008; Vero E6 ACE2 cells, 100 TCID50 SARS-CoV-2, 68 h after infection; read-out: CPE Inhibition Assay EC50

Compound | EC50 [nM]
COc1cc(-c2cn[nH]c2)ccc1N(Cc1cccc(Cl)c1)C(=O)Cn1nnc2ccccc21 [Compound 38, 2-(Benzotriazol-1-yl)-N-[(3-chlorophenyl)methyl]-N-[2-methoxy-4-(1H-pyrazol-4-yl)phenyl]acetamide] | 2300 ± 330

Molecular target: SARS-CoV-2 3CLpro (Severe acute respiratory syndrome coronavirus 2 (2019-nCoV) (SARS-CoV-2), UniProt P0DTD1)
Assay: biochemical
Type: biochemical
Conditions: not given

Compound | IC50 [nM]
CC(c1cc(F)cc(Cl)c1)N(C(=O)Cn1nnc2ccccc21)c1ccc(-c2c[nH]cn2)cc1 (racemic) [Compound 73, 2-(benzotriazol-1-yl)-N-[4-(1H-imidazol-4-yl)phenyl]-N-[rac-(1R)-1-(3-chloro-5-fluoro-phenyl)ethyl]acetamide] | 100

Same assay, conditions: read-out: SARS-CoV-2 IC50

Compound | IC50 [nM]
COc1cc(-c2cn[nH]c2)ccc1N(Cc1cccc(Cl)c1)C(=O)Cn1nnc2ccccc21 [Compound 38, 2-(Benzotriazol-1-yl)-N-[(3-chlorophenyl)methyl]-N-[2-methoxy-4-(1H-pyrazol-4-yl)phenyl]acetamide] | 197 ± 50
O=C(Cn1nnc2ccccc21)N(Cc1cccc(Cl)c1)c1ccc(-c2cn[nH]c2)cc1 [Compound 36, N-(4-(1H-Pyrazol-4-yl)phenyl)-2-(1H-benzo[d][1,2,3]triazol-1-yl)-N-(3-chlorobenzyl)acetamide] | 270 ± 67
O=C(Cn1nnc2ccccc21)N(Cc1cccc(C(F)(F)F)c1)c1ccc(-c2c[nH]cn2)cc1 [Compound 76, 2-(benzotriazol-1-yl)-N-[4-(1H-imidazol-4-yl)phenyl]-N-[[3-(trifluoromethyl)phenyl]methyl]acetamide] | 270
O=C1CNCCN1c1ccc(N(Cc2cc(F)cc(F)c2)C(=O)Cn2nnc3ccccc32)cc1 [Compound 101, 2-(benzotriazol-1-yl)-N-[(3,5-difluorophenyl)methyl]-N-[4-(2-oxopiperazin-1-yl)phenyl]acetamide] | 3400
O=C(Cn1nnc2ccccc21)N(CC1CCCC1)c1ccc(-c2cccnc2)cc1 [Compound 25, 2-(1H-Benzo[d][1,2,3]triazol-1-yl)-N-(cyclopentylmethyl)-N-(4-(pyridin-3-yl)phenyl)acetamide] | 1160 ± 190
O=C(Cn1ccnn1)N(Cc1cccc(Cl)c1)c1ccc(-c2cn[nH]c2)cc1 [Compound 113, N-[(3-chlorophenyl)methyl]-N-[4-(1H-pyrazol-4-yl)phenyl]-2-(triazol-1-yl)acetamide] | 8200
NCc1ccc(N(Cc2cc(F)cc(F)c2)C(=O)Cn2nnc3ccccc32)cc1 [Compound 124, N-[4-(aminomethyl)phenyl]-2-(benzotriazol-1-yl)-N-[(3,5-difluorophenyl)methyl]acetamide] | 59
CC(C)CCN(C(=O)Cn1nnc2ccccc21)c1ccc(-c2cccnc2)cc1 [Compound 22, 2-(1H-Benzo[d][1,2,3]triazol-1-yl)-N-isopentyl-N-(4-(pyridin-3-yl)phenyl)acetamide] | 4620 ± 130
O=C(Cn1nnc2ccccc21)N(CC1CCC1)c1ccc(-c2c[nH]cn2)cc1 [Compound 79, 2-(benzotriazol-1-yl)-N-(cyclobutylmethyl)-N-[4-(1H-imidazol-4-yl)phenyl]acetamide] | 1100
O=C(Cn1nnc2ccccc21)N(Cc1ccnc(C(F)(F)F)c1)c1ccc(-c2c[nH]cn2)cc1 [Compound 95, 2-(benzotriazol-1-yl)-N-[4-(1H-imidazol-4-yl)phenyl]-N-[[2-(trifluoromethyl)-4-pyridyl]methyl]acetamide] | 2900
O=C(Cn1nnc2ccccc21)N(Cc1cc(Cl)ccc1F)c1ccc(-c2c[nH]cn2)cc1 [Compound 83, 2-(benzotriazol-1-yl)-N-[(5-chloro-2-fluoro-phenyl)methyl]-N-[4-(1H-imidazol-4-yl)phenyl]acetamide] | 76
Cc1[nH]cnc1-c1ccc(N(Cc2cc(F)cc(Cl)c2)C(=O)Cn2nnc3ccccc32)cc1 [Compound 74, 2-(benzotriazol-1-yl)-N-[(3-chloro-5-fluoro-phenyl)methyl]-N-[4-(5-methyl-1H-imidazol-4-yl)phenyl]acetamide] | 350
O=C(Cn1nnc2ccccc21)N(Cc1cncc(F)c1)c1ccc(C2CNC2)cc1 [Compound 119, N-[4-(azetidin-3-yl)phenyl]-2-(benzotriazol-1-yl)-N-[(5-fluoro-3-pyridyl)methyl]acetamide] | 600
O=C(Cn1nnc2ccccc21)N(Cc1cc(F)cc(F)c1)c1ccc(-c2c[nH]nn2)cc1 [Compound 105, 2-(benzotriazol-1-yl)-N-[(3,5-difluorophenyl)methyl]-N-[4-(1H-triazol-4-yl)phenyl]acetamide] | 180
O=C(Cn1nnc2ccccc21)N(Cc1cc(F)cc(F)c1)c1ccc(CCO)cc1 [Compound 99, 2-(benzotriazol-1-yl)-N-[(3,5-difluorophenyl)methyl]-N-[4-(2-hydroxyethyl)phenyl]acetamide] | 460
O=C(Cn1nnc2ccccc21)N(Cc1cc(F)cc(F)c1)c1ccc(C2CCNCC2)cc1 [Compound 90, 2-(benzotriazol-1-yl)-N-[(3,5-difluorophenyl)methyl]-N-[4-(4-piperidyl)phenyl]acetamide] | 1700

Compound | IC50 [nM]
COc1ccc(F)cc1CN(C(=O)Cn1nnc2ccccc21)c1ccc(-c2c[nH]cn2)cc1 [Compound 110, 2-(benzotriazol-1-yl)-N-[(5-fluoro-2-methoxy-phenyl)methyl]-N-[4-(1H-imidazol-4-yl)phenyl]acetamide] | 200
O=C(Cn1nnc2ccccc21)N(Cc1cc(F)cc(Cl)c1)c1ccc(C2CNC2)cc1 [Compound 121, N-[4-(azetidin-3-yl)phenyl]-2-(benzotriazol-1-yl)-N-[(3-chloro-5-fluoro-phenyl)methyl]acetamide] | 100
Cc1[nH]ncc1-c1ccc(N(Cc2cccc(Cl)c2)C(=O)Cn2nnc3ccccc32)cc1 [Compound 69, 2-(1H-benzo[d][1,2,3]triazol-1-yl)-N-(3-chlorobenzyl)-N-(4-(5-methyl-1H-pyrazol-4-yl)phenyl)acetamide] | 380
O=C(Cn1nnc2ccccc21)N(Cc1cncc(F)c1)c1ccc(C2=CCNC2)cc1 [Compound 122, 2-(benzotriazol-1-yl)-N-[4-(2,5-dihydro-1H-pyrrol-3-yl)phenyl]-N-[(5-fluoro-3-pyridyl)methyl]acetamide] | 1500
O=C(Cn1nnc2ccccc21)N(Cc1cc(F)cc(Cl)c1)c1ccc(-c2c[nH]cn2)cc1 [Compound 72, 2-(benzotriazol-1-yl)-N-[(3-chloro-5-fluoro-phenyl)methyl]-N-[4-(1H-imidazol-4-yl)phenyl]acetamide] | 52
O=C(Cn1nnc2ccccc21)N(Cc1cscn1)c1ccc(-c2cccnc2)cc1 [Compound 27, 2-(Benzotriazol-1-yl)-N-[4-(3-pyridyl)phenyl]-N-(thiazol-4-ylmethyl)acetamide] | 1590 ± 440
O=C(Cn1nnc2ccccc21)N(CC1CCC1)c1ccc(-c2cccnc2)cc1 [Compound 24, 2-(1H-Benzo[d][1,2,3]triazol-1-yl)-N-(cyclobutylmethyl)-N-(4-(pyridin-3-yl)phenyl)acetamide] | 830 ± 30
O=C(Cn1nnc2ccccc21)N(Cc1ccc(F)cn1)c1ccc(-c2c[nH]cn2)cc1 [Compound 103, 2-(benzotriazol-1-yl)-N-[(5-fluoro-2-pyridyl)methyl]-N-[4-(1H-imidazol-4-yl)phenyl]acetamide] | 9500
O=C(Cn1nnc2ccccc21)N(Cc1cncc(F)c1)c1ccc(-c2c[nH]cn2)cc1 [Compound 97, 2-(benzotriazol-1-yl)-N-[(5-fluoro-3-pyridyl)methyl]-N-[4-(1H-imidazol-4-yl)phenyl]acetamide] | 130
NC(=O)Cc1ccc(N(Cc2cc(F)cc(F)c2)C(=O)Cn2nnc3ccccc32)cc1 [Compound 94, 2-[4-[[2-(benzotriazol-1-yl)acetyl]-[(3,5-difluorophenyl)methyl]amino]phenyl]acetamide] | 670
Cc1nc(-c2ccc(N(Cc3cc(F)cc(F)c3)C(=O)Cn3nnc4ccccc43)cc2)c[nH]1 [Compound 104, 2-(benzotriazol-1-yl)-N-[(3,5-difluorophenyl)methyl]-N-[4-(2-methyl-1H-imidazol-4-yl)phenyl]acetamide] | 170
O=C1C=C(c2ccc(N(Cc3cc(F)cc(F)c3)C(=O)Cn3nnc4ccccc43)cc2)CN1 [Compound 109, 2-(benzotriazol-1-yl)-N-[(3,5-difluorophenyl)methyl]-N-[4-(5-oxo-1,2-dihydropyrrol-3-yl)phenyl]acetamide] | 340
O=C(Cn1nnc2ccccc21)N(Cc1cc(F)cc(F)c1)c1ccc(C2=CCNC2)cc1 [Compound 91, 2-(benzotriazol-1-yl)-N-[(3,5-difluorophenyl)methyl]-N-[4-(2,5-dihydro-1H-pyrrol-3-yl)phenyl]acetamide] | 130
COc1ccc(Cl)cc1CN(C(=O)Cn1nnc2ccccc21)c1ccc(-c2c[nH]cn2)cc1 [Compound 86, 2-(benzotriazol-1-yl)-N-[(5-chloro-2-methoxy-phenyl)methyl]-N-[4-(1H-imidazol-4-yl)phenyl]acetamide] | 180
O=C(Cn1nnc2ccccc21)N(Cc1cc(F)cc(F)c1)c1ccc(-c2ncc[nH]2)cc1 [Compound 100, 2-(benzotriazol-1-yl)-N-[(3,5-difluorophenyl)methyl]-N-[4-(1H-imidazol-2-yl)phenyl]acetamide] | 340
Cn1cc(-c2ccc(N(Cc3ccsc3)C(=O)Cn3nnc4ccccc43)cc2)cn1 [Compound 18, 2-(Benzotriazol-1-yl)-N-[4-(1-methylpyrazol-4-yl)phenyl]-N-(3-thienylmethyl)acetamide] | 20400 ± 420
